Legend:
[1] = test system: U-46619-induced platelet aggregation; test: TP receptor platelet aggregation, rabbit; format: cell-based, New Zealand Rabbit
Description: Thrombosis Research 33:277-288.
TP Receptor Platelet Aggregation—Rabbit:
New Zealand Rabbit (2.75±0.25 kg) platelet rich plasma
Assay: Inhibition of 1.5 μM U-46619-induced platelet aggregation Incubation Time, Temp: 5 minutes at 37° C. Incubation Buffer Trisodium Citrate (0.13 M)-treated platelet rich plasma
Time of Assessment: 5 minutes
Quantification Method Optical Density Change

3T3-L1 adipocytes = test: Insulin-stimulated glucose uptake assay; format: cell-based; details: compared with Compound A (racemate)
Description: Briefly, glucose uptake is measured in 3T3-L1 adipocytes cultured in 96-well plates. On day 6 of differentiation (according to the MDI-protocol, see above) cells are treated with either vehicle, positive control (Avandia) or test compound. 48 hours later the ability of adipocytes to take up glucose in response to insulin is determined. Cells are washed with serum-free DMEM+antibiotics and incubated in the same medium at 37° C. for 2 hours. Cells are then washed and subsequently incubated in Krebs-Ringer-Hepes (KRP) buffer for 30 min at 37° C. Hereafter, insulin is added to the cells to a final concentration of 10 nM and cells are then incubated at 37° C. for 15 min. Glucose uptake is initiated by the addition of KRP buffer supplemented with 10 mM [^14C] 2-deoxy-D-glucose. After further incubation for 15 min at 37° C., glucose uptake is terminated by addition of a large surplus of cold glucose and three rapid washes of ice-cold PBS. Cells are then lysed and ^14C-radioactivity determined by scintillation counting.

[2] = biological target: T1, Thromboxane receptor (TP) (Homo sapiens, UniProt P21731); test: TP receptor radioligand binding; details: Human recombinant HEK-293 cells, 5 nM [3H] SQ-29548
T1 construct: expressed in transfected cells; host or cells: HEK-293 cells
T1 sequence (P21731 1-343): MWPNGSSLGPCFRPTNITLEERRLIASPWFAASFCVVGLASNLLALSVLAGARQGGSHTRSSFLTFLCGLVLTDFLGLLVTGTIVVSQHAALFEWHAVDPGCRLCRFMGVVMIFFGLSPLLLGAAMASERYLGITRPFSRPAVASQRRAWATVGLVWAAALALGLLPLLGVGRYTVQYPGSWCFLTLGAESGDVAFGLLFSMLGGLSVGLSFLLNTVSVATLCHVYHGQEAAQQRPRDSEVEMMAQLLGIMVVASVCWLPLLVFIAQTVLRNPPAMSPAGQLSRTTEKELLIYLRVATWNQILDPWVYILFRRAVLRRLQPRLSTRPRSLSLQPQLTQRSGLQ
Description: The compounds were tested on radioligand binding assays for thromboxane receptor binding essentially as described by Hedberg et al. (1988) J. Pharmacol. Exp. Ther. 245:786-792 and Saussy et al. (1986) J. Biol. Chem. 261: 3025-3029 according to the following:
TP Receptor Radioligand Binding Studies:
Human recombinant HEK-293 cells,
Incubation Time, Temp: 30 minutes at 25° C.
Incubation Buffer: 50 mM Tris-HCl, pH 7.4, 154 mM NaCl
Non-Specific Ligand: 1 μM SQ-29548
The data were transformed to semi-log and then analysed using non-linear regression to a four-parameter dose-response curve Y=Bottom+(Top−Bottom)/(1+10̂((LogEC50−X)*HillSlope)) using the log(agonist) vs. response—Variable slope function of GraphPad Prism software (http://graphpad.com/help/prism5/prism5help.html?usingnonlinear_regression_step_by_s.htm).

Thromboxane synthase = biological target: T2, Thromboxane synthase (Homo sapiens, UniProt P24557); test: Human platelet thromboxane synthase assay; format: biochemical
T2 construct: Human Platelet Thromboxane Synthase Assay; from tissue; host or cells: human platelets
T2 sequence (P24557 1-533): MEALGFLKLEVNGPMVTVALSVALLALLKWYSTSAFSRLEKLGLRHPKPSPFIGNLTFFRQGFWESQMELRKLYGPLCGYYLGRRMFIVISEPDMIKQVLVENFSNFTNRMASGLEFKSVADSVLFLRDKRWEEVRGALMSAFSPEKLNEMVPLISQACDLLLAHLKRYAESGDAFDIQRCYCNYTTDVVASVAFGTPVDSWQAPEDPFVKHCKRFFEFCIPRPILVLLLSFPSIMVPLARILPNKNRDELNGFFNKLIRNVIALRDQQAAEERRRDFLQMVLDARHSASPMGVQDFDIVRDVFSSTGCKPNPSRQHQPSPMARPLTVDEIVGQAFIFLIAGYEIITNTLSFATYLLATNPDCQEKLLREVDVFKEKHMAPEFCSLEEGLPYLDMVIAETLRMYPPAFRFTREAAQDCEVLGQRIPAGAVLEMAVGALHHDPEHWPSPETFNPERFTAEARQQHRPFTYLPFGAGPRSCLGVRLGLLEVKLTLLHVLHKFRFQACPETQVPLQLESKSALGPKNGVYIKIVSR
Description: The compounds were tested for thromboxane synthase inhibition essentially as described by Borsch-Haubold A G, Pasquet S, Watson S P. (1998). Direct inhibition of cyclooxygenase-1 and -2 by the kinase inhibitors SB 203580 and PD 98059. […] 1. Imidazole derivatives. J Med. Chem. (10):1139-48 according to the following:
Pre-incubation time, temp: 15 minutes at 25° C. Incubation time, temp: 3 minutes at 25° C.
Incubation Buffer: 10 mM Tris-HCl, pH 7.4
Quantification Method: ETA quantification of TxB2

- IC50 [2]: 15.2 nM
- Ki [2]: 9.9 nM
- inhibition at 10 µM ([2]; at 10 μM): 97%
- IC50 (Thromboxane synthase): 56 nM
- inhibition at 5 µM (Thromboxane synthase; at 5 μM): 94%
Compound: O=C(O)CC/C=C\CC1COC(c2coc3ccc(Cl)cc3c2=O)OC1c1ccccc1O (racemic) [Compound 3, (Z)-6-(2-(6-Chloro-4-oxo-4H-chromen-3-yl)-4-(2-hydroxyphenyl)-1,3-dioxan-5-yl)hex-4-enoic acid]
- Inhibition of platelet aggregation (in words) [1]: potent inhibitors of platelet aggregation
- inhibition at 30 µM ([1]; Oryctolagus cuniculus, at 30 μM, 1.5 μM U-46619, platelet rich plasma): 100%
- Effect in glucose uptake assays (in words) (3T3-L1 adipocytes): effect similar if not better to Compound A (racemate)
- Inhibition of thromboxane synthase (in words) (Thromboxane synthase): potent inhibitors of thromboxane synthase

Source: patent US20130197030A1, “Substituted 1,3-Dioxanes and There Uses” (Evolva Sa, priority 2007, published 2013)
